Like-named read-outs stand apart in the source and are kept apart here.
Biological target: T1, EED (1-441)-His protein (Homo sapiens, UniProt O75530)
T1 construct: 20 nM EED (1-441)-His protein
Assay: EED-H3K27Me3 peptide competition binding assay by AlphaScreen
Conditions: read-out: Alpha screen
Procedure: EED-H3K27Me3 Peptide Competition Binding Assay by AlphaScreen (α-Screen):
The compounds at each concentration (2.5 μl of each) were transferred into a 384-well Perkin Elmer OptiPlate-384 white plates. 5 μl of solutions containing 20 nM EED (1-441)-His protein in the buffer (25 mM HEPES, pH 8, 0.02% Tween-20, 0.5% BSA) were added to the wells and then incubated with compound for 15 min. 2.5 μl of solutions containing 20 nM biotin-H3K27Me3 (19-33) peptide in the buffer (25 mM HEPES, pH 8, 0.02% Tween-20, 0.5% BSA) were added to the wells and then incubated with compound for 30 min. AlphaScreen detection beads mix was prepared immediately before use by mixing nickel chelate acceptor beads and streptavidin donor beads in a 1:1 ratio (Perkin Elmer, Product No. 6760619C/M/R) into the buffer described above. Then 10 μl of the detection beads mix was added to the plate and incubated in the dark at RT for 1 h. The final concentration of donor and acceptor beads was 10 μg/ml for each. Plates were read on CLARIOStar plate reader (BMG Labtech) using the AlphaScreen setting adapted for optimal signal detection with a 615 nm filter, after sample excitation at 680 nm. The emission signal at 615 nm was used to quantify compound inhibition. AlphaScreen signals were normalized based on the reading coming from the positive (maximum signal control) and negative controls (minimum signal control) to give percentage of activities left. The data were then fit to a dose response equation to get the IC50 values.

T1 sequence (O75530 whole entry): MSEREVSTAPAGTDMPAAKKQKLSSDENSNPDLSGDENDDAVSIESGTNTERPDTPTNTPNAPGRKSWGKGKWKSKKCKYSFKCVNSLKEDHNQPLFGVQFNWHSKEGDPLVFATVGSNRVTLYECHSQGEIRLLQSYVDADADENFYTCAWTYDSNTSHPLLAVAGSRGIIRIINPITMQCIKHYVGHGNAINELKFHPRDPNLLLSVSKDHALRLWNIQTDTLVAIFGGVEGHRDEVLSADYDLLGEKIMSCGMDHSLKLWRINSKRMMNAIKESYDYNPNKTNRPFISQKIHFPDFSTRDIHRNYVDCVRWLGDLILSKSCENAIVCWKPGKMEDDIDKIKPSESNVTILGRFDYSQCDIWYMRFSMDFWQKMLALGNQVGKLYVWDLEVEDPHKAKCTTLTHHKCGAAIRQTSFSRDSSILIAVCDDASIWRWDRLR

Row | SMILES | IC50 (IC50 class, Table 4B) | IC50 (Table 4A)
1 | O=C1c2ncn3c(NCc4c(F)ccc5c4CCO5)ncc(c23)-c2nc(C(F)(F)F)ccc2CN1CC1COCCO1 (stereo not drawn) [Compound 40, 4-((1,4-dioxan-2-yl)methyl)-12-(((5-fluoro-2,3-dihydrobenzofuran-4-yl)methyl)amino)-8-(trifluoro-methyl)-4,5-dihydro-3H-2,4,9,11,12a-pentaazabenzo [4,5]cycloocta[1,2,3-cd]inden-3-one] |  | 10.5 nM
2 | CCc1ccc2c(n1)CN(CC(F)F)C(=O)c1ncn3c(NCc4c(F)ccc5c4CCO5)ncc-2c13 [E 13, 4-(2,2-difluoroethyl)-7-ethyl-12-(((5-fluoro-2,3-dihydrobenzofuran-4-yl)methyl)amino)-4,5-dihydro-3H-2,4,6,11,12a-pentaazabenzo[4,5]cycloocta [1,2,3-cd]inden-3-one] | < 10 nM | 
3 | O=C1NCCc2ccccc2-c2cnc(NCc3c(F)ccc4c3CCO4)n3cnc1c23 [E 28, 13-(((5-fluoro-2,3-dihydrobenzofuran-4-yl)methyl)amino)-5,6-dihydro-2,4, 12, 13a-tetraazabenzo[4,5] cyclonona[1,2,3-cd]inden-3(4H)-one] | 10 to 100 nM | 
4 | Cc1ccc2c(n1)CNC(=O)c1ncn3c(NCc4c(F)ccc5c4CCO5)ncc-2c13 [Compound 21, 12-(((5-fluoro-2,3-dihydrobenzofuran-4-yl)methyl)amino)-7-methyl-4,5-dihydro-3H-2,4,6,11,12a-pentaazabenzo[4,5]cycloocta[1,2,3-cd]inden-3-one] |  | 0.55 nM
5 | Cc1ccc2c(n1)CN(C(C)C)C(=O)c1ncn3c(NCc4c(F)ccc5c4CCO5)ncc-2c13 [E 1, 12-(((5-fluoro-2,3-dihydrobenzofuran-4-yl)methyl)amino)-4-isopropyl-7-methyl-4,5-dihydro-3H-2,4,6,11,12a-pentaazabenzo[4,5]cycloocta[1,2,3-cd] inden-3-one] | < 10 nM | 
6 | O=C1c2ncn3c(NCc4c(F)ccc5c4CCO5)ncc(c23)-c2ccc(C(F)(F)F)nc2CN1CC1COCCO1 (stereo not drawn) [Compound 35, 4-((1,4-dioxan-2-yl)methyl)-12-(((5-fluoro-2,3-dihydrobenzofuran-4-yl)methyl)amino)-7-(trifluoro-methyl)-4,5-dihydro-3H-2,4,6,11,12a-pentaazabenzo [4,5]cycloocta[1,2,3-cd]inden-3-one] |  | 1.16 nM
7 | O=C1c2ncn3c(NCc4c(F)ccc5c4CCO5)ncc(c23)-c2ccc(CC3COCCO3)nc2CN1CC(F)(F)F (stereo not drawn) [E 49, 7-((1,4-dioxan-2-yl)methyl)-12-(((5-fluoro-2,3-dihydrobenzofuran-4-yl)methyl)amino)-4-(2,2,2-trifluoroethyl)-4,5-dihydro-3H-2,4,6,11,12a-pentaazabenzo[4,5]cycloocta[1,2,3-cd] inden-3-one] | < 10 nM | 
8 | CC(F)(F)CN1Cc2cc(C(F)(F)F)ccc2-c2cnc(NCc3c(F)ccc4c3CCO4)n3cnc(c23)C1=O [Compound 63, 4-(2,2-difluoropropyl)-12-(((5-fluoro-2,3-dihydrobenzofuran-4-yl)methyl)amino)-7-(trifluoromethyl)-4,5-dihydro-3H-2,4,11,12a-tetraazabenzo[4,5] cycloocta[1,2,3-cd]inden-3-one] |  | 1.89 nM
9 | O=C1Nc2ccccc2-c2cnc(NCc3c(F)ccc4c3CCO4)n3cnc1c23 [Compound 3, 11-(((5-fluoro-2,3-dihydrobenzofuran-4-yl)methyl)amino)-2,4,10,11a-tetraazadibenzo[cd,f]azulen-3(4H)-one] |  | 6.88 nM
10 | Cc1nc2c(s1)-c1cnc(NCc3c(F)ccc4c3CCO4)n3cnc(c13)C(=O)N(C1CC1)C2 [Compound 86, 4-cyclopropyl-11-(((5-fluoro-2,3-dihydrobenzofuran-4-yl)methyl)amino)-7-methyl-4,5-dihydro-3H-8-thia-2,4,6,10,11a-pentaazacyclopenta[4,5] cycloocta[1,2,3-cd]inden-3-one] |  | 2.56 nM
11 | O=C1OCc2cc(C(F)(F)F)ccc2-c2cnc(NCc3cccc4c3OCO4)n3cnc1c23 [Compound 27, 12-((benzo[d][1,3]dioxol-4-ylmethyl)amino)-7-(trifluoromethyl)-3H,5H-4-oxa-2,11,12a-triazabenzo [4,5]cycloocta[1,2,3-cd]inden-3-one] |  | 5.87 nM
12 | Cn1cc2c(n1)COC(=O)c1ncn3c(NCc4c(F)ccc5c4CCO5)ncc-2c13 [Compound 54, 11-(((5-fluoro-2,3-dihydrobenzofuran-4-yl)methyl)amino)-7-methyl-5,7-dihydro-3H-4-oxa-2,6,7,10, 11a-pentaazacyclopenta[4,5]cycloocta[1,2,3-cd] inden-3-one] |  | 0.95 nM
13 | O=C1c2ncn3c(NCc4c(F)ccc5c4CCO5)ncc(c23)-c2ccc(C(F)(F)F)nc2CN1CC1CCOCC1 [Compound 46, 12-(((5-fluoro-2,3-dihydrobenzofuran-4-yl)methyl)amino)-4-((tetrahydro-2H-pyran-4-yl)methyl)-7-(trifluoromethyl)-4,5-dihydro-3H-2,4,6,11, 12a-pentaazabenzo[4,5]cycloocta[1,2,3-cd]inden-3-one] |  | 1.07 nM

Now from value to compound:

Row | IC50 (IC50 class, Table 4B) | IC50 (Table 4A) | SMILES
14 | 10 to 100 nM |  | Cc1onc2c1Cc1cc(C(F)(F)F)ncc1-c1cnc(NCc3c(F)ccc4c3CCO4)n3cnc-2c13 [E 35, N-((5-fluoro-2,3-dihydrobenzofuran-4-yl)methyl)-5-methyl-8-(trifluoromethyl)-6H-4-oxa-2,3,9,12, 13a-pentaazabenzo[4,5]cyclopenta[7,8]cycloocta [1,2,3-cd]inden-13-amine]
15 |  | 2.03 nM | O=C1OCc2ncc(C(F)(F)F)cc2-c2cnc(NCc3c(F)ccc4c3CCO4)n3cnc1c23 [Compound 30, 12-(((5-fluoro-2,3-dihydrobenzofuran-4-yl)methyl)amino)-8-(trifluoromethyl)-3H,5H-4-oxa-2,6,11, 12a-tetraazabenzo[4,5]cycloocta[1,2,3-cd]inden-3-one]
16 | < 10 nM |  | Cc1cc2c(cn1)-c1cnc(NCc3c(F)ccc4c3CCO4)n3cnc(c13)C(=O)N(C(C)C)C2 [E 2, 12-(((5-fluoro-2,3-dihydrobenzofuran-4-yl)methyl)amino)-4-isopropyl-7-methyl-4,5-dihydro-3H-2,4,8,11,12a-pentaazabenzo[4,5]cycloocta[1,2,3-cd] inden-3-one]
17 |  | 20.7 nM | O=C1OCc2ccc(C(F)(F)F)nc2-c2cnc(NCc3c(F)ccc4c3CCO4)n3cnc1c23 [Compound 29, 12-(((5-fluoro-2,3-dihydrobenzofuran-4-yl)methyl)amino)-8-(trifluoromethyl)-3H,5H-4-oxa-2,9,11, 12a-tetraazabenzo[4,5]cycloocta[1,2,3-cd]inden-3-one]
18 |  | 1.06 nM | CN1Cc2nc(C(F)(F)F)ccc2-c2cnc(NCc3c(F)ccc4c3CCO4)n3cnc(c23)C1=O [Compound 33, 12-(((5-fluoro-2,3-dihydrobenzofuran-4-yl)methyl)amino)-4-methyl-7-(trifluoromethyl)-4,5-dihydro-3H-2,4,6,11,12a-pentaazabenzo[4,5]cycloocta [1,2,3-cd]inden-3-one]
19 |  | 1.13 nM | O=C1NCc2cc(C(F)(F)F)ccc2-c2cnc(NCc3c(F)ccc4c3CCO4)n3cnc1c23 [Compound 19, 12-(((5-fluoro-2,3-dihydrobenzofuran-4-yl)methyl)amino)-7-(trifluoromethyl)-4,5-dihydro-3H-2,4,11, 12a-tetraazabenzo[4,5]cycloocta[1,2,3-cd]inden-3-one]
20 |  | 1.81 nM | CC1(O)CC(CN2Cc3cc(C(F)(F)F)ncc3-c3cnc(NCc4c(F)ccc5c4CCO5)n4cnc(c34)C2=O)C1 (stereo not drawn) [Compound 49, 12-(((5-fluoro-2,3-dihydrobenzofuran-4-yl)methyl)amino)-4-((3-hydroxy-3-methylcyclobutyl)methyl)-7-(trifluoromethyl)-4,5-dihydro-3H-2,4,8,11,12a-pentaazabenzo[4,5]cycloocta[1,2,3-cd]inden-3-one]
21 |  | 9.82 nM | O=C1c2ncn3c(NCc4c(F)ccc5c4CCO5)ncc(c23)-c2cnc(C(F)(F)F)cc2CN1C1CC(F)(F)C1 [Compound 85, 4-(3,3-difluorocyclobutyl)-12-(((5-fluoro-2,3-dihydrobenzofuran-4-yl)methyl)amino)-7-(trifluoro-methyl)-4,5-dihydro-3H-2,4,8,11,12a-pentaazabenzo [4,5]cycloocta[1,2,3-cd]inden-3-one]
22 | < 10 nM |  | Cc1ccc2c(n1)Cn1c(C)cnc1-c1ncn3c(NCc4c(F)ccc5c4CCO5)ncc-2c13 [E 18, N-((5-fluoro-2,3-dihydrobenzofuran-4-yl)methyl)-5,8-dimethyl-6H-2,3,5a,7,12,13a-hexaazabenzo[4, 5]cyclopenta[7,8]cycloocta[1,2,3-cd]inden-13-amine]
23 |  | 2.14 nM | CC(C)N1Cc2nc(C(F)(F)F)ccc2-c2cnc(NCc3c(F)ccc4c3CCO4)n3cnc(c23)C1=O [Compound 59, 12-(((5-fluoro-2,3-dihydrobenzofuran-4-yl)methyl)amino)-4-isopropyl-7-(trifluoromethyl)-4,5-dihydro-3H-2,4,6,11,12a-pentaazabenzo[4,5]cycloocta [1,2,3-cd]inden-3-one]
24 |  | 1.84 nM | O=C1OCc2cnc(C(F)(F)F)cc2-c2cnc(NCc3c(F)ccc4c3CCO4)n3cnc1c23 [Compound 32, 12-(((5-fluoro-2,3-dihydrobenzofuran-4-yl)methyl)amino)-8-(trifluoromethyl)-3H,5H-4-oxa-2,7,11, 12a-tetraazabenzo[4,5]cycloocta[1,2,3-cd]inden-3-one]
